Key:
human factor XIa = human factor XIa (Homo sapiens (Human), UniProt P03951); test: Measurement of FXIa inhibition (fluorogenic peptide substrate Boc-Glu(OBzl)-Ala-Arg-AMC); type: biochemical; conditions: factor XIa from Kordia 0.45 nM, 15 min preincubation, 30 min at 22° C., fluorescence
Procedure: a.1) Measurement of FXIa Inhibition
(§1) The factor XIa inhibition of the substances according to the invention is determined using a biochemical test system which utilizes the reaction of a peptidic factor XIa substrate to determine the enzymatic activity of human factor XIa. Here, factor XIa cleaves from the peptic factor XIa substrate the C-terminal aminomethylcoumarin (AMC), the fluorescence of which is measured. The determinations are carried out in microtitre plates.
In each case 1 μl of the diluted substance solutions is placed into the wells of white microtitre plates from Greiner (384 wells). 20 μl of assay buffer (50 mM of Tris/HCl pH 7.4; 100 mM of sodium chloride; 5 mM of calcium chloride; 0.1% of bovine serum albumin) and 20 μl of factor XIa from Kordia (0.45 nM in assay buffer) are then added successively. After 15 min of incubation, the enzyme reaction is started by addition of 20 μl of the factor XIa substrate Boc-Glu(OBzl)-Ala-Arg-AMC dissolved in assay buffer (10 μM in assay buffer) from Bachem, the mixture is incubated at room temperature (22° C.) for 30 min and fluorescence is then measured (excitation: 360 nm, emission: 460 nm). The measured emissions of the test batches with test substance are compared to those of control batches without test substance (only dimethyl sulphoxide instead of test substance in dimethyl sulphoxide), and IC50 values are calculated from the concentration/activity relationships.

human plasma kallikrein = human plasma kallikrein (Homo sapiens (Human), UniProt P03952); test: Determination of the plasma kallikrein activity (fluorogenic substrate H-Pro-Phe-Arg-AMC); type: biochemical; conditions: plasma kallikrein from Kordia 0.6 nM, 15 min preincubation, 30 min at 22° C., fluorescence
Procedure: a.5) Determination of the Plasma Kallikrein Activity
as §1, with “To determine the plasma kallikrein” for “The factor XIa”, “invention,” for “invention is determined using”, “system is used” for “system”, “plasma kallikrein” for “factor XIa”, “plasma kallikrein.” for “factor XIa.”
In each case 1 μl of the diluted substance solutions is placed into the wells of white microtitre plates from Greiner (384 wells). 20 μl of assay buffer (50 mM Tris/HCl pH 7.4; 100 mM sodium chloride solution; 5 mM of calcium chloride solution; 0.1% of bovine serum albumin) and 20 μl of plasma kallikrein from Kordia (0.6 nM in assay buffer) are then added successively. After 15 min of incubation, the enzyme reaction is started by addition of 20 μl of the substrate H-Pro-Phe-Arg-AMC dissolved in assay buffer (10 μM in assay buffer) from Bachem, the mixture is incubated at room temperature (22° C.) for 30 min and fluorescence is then measured (excitation: 360 nm, emission: 460 nm). The measured emissions of the test batches with test substance are compared to those of control batches without test substance (only dimethyl sulphoxide instead of test substance in dimethyl sulphoxide), and IC50 values are calculated from the concentration/activity relationships.

Sequence of human plasma kallikrein (P03952 391-638): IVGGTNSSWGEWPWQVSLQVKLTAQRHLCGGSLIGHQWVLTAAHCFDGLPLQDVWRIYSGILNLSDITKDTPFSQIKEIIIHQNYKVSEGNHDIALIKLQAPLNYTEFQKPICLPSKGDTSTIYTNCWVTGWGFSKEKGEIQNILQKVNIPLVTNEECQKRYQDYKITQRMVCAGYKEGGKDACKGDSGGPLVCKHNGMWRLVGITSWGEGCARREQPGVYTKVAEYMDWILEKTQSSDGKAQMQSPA
Sequence of human plasma kallikrein (P03952 20-390 partner): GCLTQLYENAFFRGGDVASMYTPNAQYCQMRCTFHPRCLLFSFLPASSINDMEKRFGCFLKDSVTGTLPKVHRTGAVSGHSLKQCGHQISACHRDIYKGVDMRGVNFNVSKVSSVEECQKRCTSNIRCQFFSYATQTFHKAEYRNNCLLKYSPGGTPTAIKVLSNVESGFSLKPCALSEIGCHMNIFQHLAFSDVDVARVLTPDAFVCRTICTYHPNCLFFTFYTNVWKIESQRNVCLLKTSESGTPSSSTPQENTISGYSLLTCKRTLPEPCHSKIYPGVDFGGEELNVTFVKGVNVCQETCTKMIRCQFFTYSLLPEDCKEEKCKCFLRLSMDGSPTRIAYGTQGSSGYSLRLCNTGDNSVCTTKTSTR
Sequence of human factor XIa (P03951 388-625): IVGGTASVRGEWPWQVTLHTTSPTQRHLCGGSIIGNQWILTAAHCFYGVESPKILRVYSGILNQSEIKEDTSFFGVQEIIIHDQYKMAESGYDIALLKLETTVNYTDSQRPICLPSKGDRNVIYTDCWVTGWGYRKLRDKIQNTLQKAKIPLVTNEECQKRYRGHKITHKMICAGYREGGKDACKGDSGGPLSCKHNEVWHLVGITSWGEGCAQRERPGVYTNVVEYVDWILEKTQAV
Sequence of human factor XIa (P03951 19-387 partner): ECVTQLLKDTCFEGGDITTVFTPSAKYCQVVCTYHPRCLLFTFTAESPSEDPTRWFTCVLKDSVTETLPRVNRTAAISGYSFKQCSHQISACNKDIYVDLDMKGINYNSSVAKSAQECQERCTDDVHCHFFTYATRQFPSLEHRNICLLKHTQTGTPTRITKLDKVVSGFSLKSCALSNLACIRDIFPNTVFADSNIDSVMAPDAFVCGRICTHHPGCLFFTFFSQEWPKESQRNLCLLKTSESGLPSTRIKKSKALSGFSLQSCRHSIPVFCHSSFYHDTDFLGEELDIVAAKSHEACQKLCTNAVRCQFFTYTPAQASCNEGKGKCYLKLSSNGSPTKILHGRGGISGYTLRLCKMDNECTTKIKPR

SMILES | IC50 (human factor XIa) | IC50 (human plasma kallikrein)
N#Cc1ccc(Cl)cc1-c1cc(=O)n(C(Cc2cnco2)C(=O)Nc2ccc3nccn3c2)cc1Cl (racemic) [Example 30, 2-[5-Chloro-4-(5-chloro-2-cyanophenyl)-2-oxopyridin-1(2H)-yl]-N-(imidazo[1,2-a]pyridin-6-yl)-3-(1,3-oxazol-5-yl)propanamide (racemate)] | 96 nM | 120 nM
N#Cc1ccc(Cl)cc1-c1cc(=O)n(C(Cc2cnco2)C(=O)Nc2ccc3nccn3c2)cc1OC(F)F (racemic) [Example 31, 2-[4-(5-Chloro-2-cyanophenyl)-5-(difluoromethoxy)-2-oxopyridin-1(2H)-yl]-N-(imidazo[1,2-a]pyridin-6-yl)-3-(1,3-oxazol-5-yl)propanamide (racemate)] | 500 nM | 970 nM
COc1cn(C(Cc2cocn2)C(=O)Nc2ccc3nccn3c2)c(=O)cc1-c1cc(Cl)ccc1C#N (racemic) [Example 32, 2-[4-(5-Chloro-2-cyanophenyl)-5-methoxy-2-oxopyridin-1(2H)-yl]-N-(imidazo[1,2-a]pyridin-6-yl)-3-(1,3-oxazol-4-yl)propanamide (racemate)] | 92 nM | –
N#Cc1ccc(Cl)cc1-c1cc(=O)n(C(Cc2cocn2)C(=O)Nc2ccc3nccn3c2)cc1Cl (racemic) [Example 33, 2-[5-Chloro-4-(5-chloro-2-cyanophenyl)-2-oxopyridin-1(2H)-yl]-N-(imidazo[1,2-a]pyridin-6-yl)-3-(1,3-oxazol-4-yl)propanamide (racemate)] | 310 nM | 250 nM
COCCC(C(=O)Nc1ccn2nccc2c1)n1cc(OC)c(-c2cc(Cl)ccc2C#N)cc1=O (racemic) [Example 35, 2-[4-(5-Chloro-2-cyanophenyl)-5-methoxy-2-oxopyridin-1(2H)-yl]-4-methoxy-N-(pyrazolo[1,5-a]pyridin-5-yl)butanamide (racemate)] | – | 4.3 nM
CCC(C(=O)Nc1ccn2ncc(Cl)c2c1)n1cc(OC)c(-c2cc(Cl)ccc2C#N)cc1=O (racemic) [Example 40, 2-[4-(5-Chloro-2-cyanophenyl)-5-methoxy-2-oxopyridin-1(2H)-yl]-N-(3-chloropyrazolo[1,5-a]pyridin-5-yl)butanamide (racemate)] | – | 51 nM
COCCC(C(=O)Nc1ccn2ncc(Cl)c2c1)n1cc(OC)c(-c2cc(Cl)ccc2C#N)cc1=O (racemic) [Example 41, 2-[4-(5-Chloro-2-cyanophenyl)-5-methoxy-2-oxopyridin-1(2H)-yl]-N-(3-chloropyrazolo[1,5-a]pyridin-5-yl)-4-methoxybutanamide (racemate)] | – | 11 nM
COCCC(C(=O)Nc1ccn2nccc2c1)n1cc(OC)c(-c2cc(Cl)ccc2C#N)cc1=O (single isomer, unassigned; enantiomer 1) [Example 36, 2-[4-(5-Chloro-2-cyanophenyl)-5-methoxy-2-oxopyridin-1(2H)-yl]-4-methoxy-N-(pyrazolo[1,5-a]pyridin-5-yl)butanamide (enantiomer 1)] | – | 3.2 nM
COc1cn(CC(=O)Nc2ccc3nc(C(=O)O)cn3c2)c(=O)cc1-c1cc(Cl)ccc1C#N [Example 6, 6-({[4-(5-Chloro-2-cyanophenyl)-5-methoxy-2-oxopyridin-1(2H)-yl]acetyl}amino)imidazo[1,2-a]pyridine-2-carboxylic acid] | – | 61 nM
O=C(Cn1cc(Cl)c(-c2cc(Cl)ccc2OC(F)F)cc1=O)Nc1ccc2nc(C(=O)O)cn2c1 [Example 8, 6-[({5-Chloro-4-[5-chloro-2-(difluoromethoxy)phenyl]-2-oxopyridin-1(2H)-yl}acetyl)amino]imidazo[1,2-a]pyridine-2-carboxylic acid] | 380 nM | –

Source: patent publication US9765070B2, “Substituted oxopyridine derivatives” (Bayer Pharma Aktiengesellschaft, priority 2013, dated 2017)
